Each molecule was assayed against T1, CYP11A1 (Homo sapiens, UniProt P05108) (assay: CYP11A1 inhibition: modified isocaproic acid release assay (IARA) in H295R cells). Conditions: human H295R adrenocortical carcinoma cells treated three days, 3 nM [24,25-3H]-labelled cholesterol, 1% DMSO, 10 concentrations in duplicates; read-out: IC50 of the test compounds on CYP11A1 inhibition.
T1 construct: human H295R adrenocortical carcinoma cell line was used as source of enzyme; endogenous in cells; host or cells: H295R human adrenocortical carcinoma cells
T1 sequence (P05108 40-521): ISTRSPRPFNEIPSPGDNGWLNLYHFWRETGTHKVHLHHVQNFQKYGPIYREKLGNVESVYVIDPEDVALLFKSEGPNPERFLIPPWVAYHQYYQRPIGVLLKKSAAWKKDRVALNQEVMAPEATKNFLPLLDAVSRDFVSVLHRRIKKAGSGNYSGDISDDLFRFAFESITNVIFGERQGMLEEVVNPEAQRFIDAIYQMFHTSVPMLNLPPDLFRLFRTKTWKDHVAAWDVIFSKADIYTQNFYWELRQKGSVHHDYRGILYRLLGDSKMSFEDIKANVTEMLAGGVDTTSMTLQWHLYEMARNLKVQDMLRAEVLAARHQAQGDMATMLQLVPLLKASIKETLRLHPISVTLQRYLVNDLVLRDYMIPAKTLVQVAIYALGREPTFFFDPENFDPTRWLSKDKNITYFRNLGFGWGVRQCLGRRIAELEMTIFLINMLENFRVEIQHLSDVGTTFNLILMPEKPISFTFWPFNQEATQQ
Format: cell-based
Procedure, shortened: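 H295R adrenocortical cells treated three days with test compounds at 10 concentrations in duplicate plus 3 nM [24,25-3H]-cholesterol, 1% DMSO final. Released radiolabelled isocaproic acid measured by scintillation counting after dextran-coated charcoal extraction; IC50 determined.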

| Structure (SMILES) | IC50 [nM] |
| --- | --- |
| N#Cc1ccc(COc2coc(CN3Cc4ccccc4C3)cc2=O)cc1 [Compound 45, 4-(((6-(Isoindolin-2-ylmethyl)-4-oxo-4H-pyran-3-yl)oxy)methyl)benzonitrile] | 301 to 2000 |
| CC(C)C(=O)N1CCC(COc2coc(CN3Cc4ccccc4C3)cc2=O)CC1 [Compound 272, 5-((1-Isobutyrylpiperidin-4-yl)methoxy)-2-(isoindolin-2-ylmethyl)-4H-pyran-4-one] | < 150 |
| N#CCS(=O)(=O)N1CCC(COc2coc(CN3Cc4ccccc4C3)cc2=O)CC1 [Compound 254, 2-((4-(((6-(Isoindolin-2-ylmethyl)-4-oxo-4H-pyran-3-yl)oxy)methyl)piperidin-1-yl)sulfonyl)acetonitrile] | < 150 |
| O=c1cc(CN2Cc3ccccc3C2)occ1OCc1ccc(CO)cc1 [Compound 123, 5-((4-(Hydroxymethyl)benzyl)oxy)-2-(isoindolin-2-ylmethyl)-4H-pyran-4-one] | 301 to 2000 |
| CN(CCO)S(=O)(=O)c1ccc(COc2coc(CN3Cc4ccccc4C3)cc2=O)cc1 [Compound 12, N-(2-Hydroxyethyl)-4-(((6-(isoindolin-2-ylmethyl)-4-oxo-4H-pyran-3-yl)-oxy)methyl)-N-methylbenzenesulfonamide] | < 150 |
| CCS(=O)(=O)c1ccc(COc2coc(CN3Cc4ccccc4C3)cc2=O)cc1 [Compound 24, 5-((4-(Ethylsulfonyl)benzyl)oxy)-2-(isoindolin-2-ylmethyl)-4H-pyran-4-one] | 150 to 300 |
| COc1ccc(COc2coc(CN3CCc4ccccc4C3)cc2=O)cc1 [Compound 121, 2-((3,4-Dihydroisoquinolin-2(1H)-yl)methyl)-5-((4-methoxybenzyl)oxy)-4H-pyran-4-one] | 150 to 300 |
| CN(C)C(=O)c1ccc(COc2coc(CN3Cc4ccccc4C3)cc2=O)nc1 [Compound 170, 6-(((6-(Isoindolin-2-ylmethyl)-4-oxo-4H-pyran-3-yl)oxy)methyl)-N,N-dimethyl-nicotinamide] | 301 to 2000 |
| CS(=O)(=O)N1CCC(COc2coc(CN3Cc4cc(F)c(F)cc4C3)cc2=O)CC1 [Compound 210, 2-((5,6-Difluoroisoindolin-2-yl)methyl)-5-((1-(methylsulfonyl)piperidin-4-yl)methoxy)-4H-pyran-4-one] | 150 to 300 |
| CS(=O)(=O)c1ccc(COc2coc(CN3Cc4cc5c(cc4C3)OCO5)cc2=O)cc1 [Compound 66, 2-((5,7-Dihydro-6H-[1,3]dioxolo[4,5-f]isoindol-6-yl)methyl)-5-((4-(methyl-sulfonyl)benzyl)oxy)-4H-pyran-4-one] | 301 to 2000 |
| CS(=O)(=O)N1CCC(COc2coc(C[N+]3([O-])Cc4ccc(C(F)(F)F)cc4C3)cc2=O)CC1 (stereo not shown) [Compound 290, 2-((5-((1-(Methylsulfonyl)piperidin-4-yl)methoxy)-4-oxo-4H-pyran-2-yl)methyl)-5-(trifluoromethyl)isoindoline 2-oxide] | 301 to 2000 |
| CCS(=N)(=O)c1ccc(COc2coc(CN3Cc4ccc(F)cc4C3)cc2=O)cc1 (stereo not shown) [Compound 102, 5-((4-(Ethylsulfonimidoyl)benzyl)oxy)-2-((5-fluoroisoindolin-2-yl)methyl)-4H-pyran-4-one] | 150 to 300 |
| CS(=N)(=O)c1ccc(COc2coc(CN3Cc4ccc(C(F)(F)F)cc4C3)cc2=O)cc1 (stereo not shown) [Compound 89, 5-((4-(S-Methylsulfonimidoyl)benzyl)oxy)-2-((5-(trifluoromethyl)isoindolin-2-yl)methyl)-4H-pyran-4-one] | < 150 |
| CS(=O)(=O)N1CCC(COc2coc(C[N+]3([O-])Cc4ccccc4C3)cc2=O)CC1 [Compound 289, 2-((5-((1-(Methylsulfonyl)piperidin-4-yl)methoxy)-4-oxo-4H-pyran-2-yl)-methyl)isoindoline 2-oxide] | 301 to 2000 |
| CNC(=O)c1ccc(COc2coc(CN3CCc4ccccc4C3)cc2=O)cc1 [Compound 48, 4-(((6-((3,4-Dihydroisoquinolin-2(1H)-yl)methyl)-4-oxo-4H-pyran-3-yl)oxy)-methyl)-N-methylbenzamide] | 301 to 2000 |
| CCS(=O)(=O)N1CC=C(COc2coc(CN3Cc4ccccc4C3)cc2=O)CC1 [Compound 99, 5-((1-(Ethylsulfonyl)-1,2,3,6-tetrahydropyridin-4-yl)methoxy)-2-(isoindolin-2-ylmethyl)-4H-pyran-4-one] | 150 to 300 |
| O=c1cc(CN2Cc3ccccc3C2)occ1OCc1ccc(C2(O)CCC2)cc1 [Compound 111, 5-((4-(1-Hydroxycyclobutyl)benzyl)oxy)-2-(isoindolin-2-ylmethyl)-4H-pyran-4-one] | < 150 |

| Structure (SMILES) | IC50 [nM] |
| --- | --- |
| Cc1ccc2c(c1)CN(Cc1cc(=O)c(OCC3CCN(S(C)(=O)=O)CC3)co1)C2 [Compound 211, 2-((5-Methylisoindolin-2-yl)methyl)-5-((1-(methylsulfonyl)piperidin-4-yl)-methoxy)-4H-pyran-4-one] | < 150 |
| CS(=O)(=O)N1CCC(F)(COc2coc(CN3Cc4ccc(F)cc4C3)cc2=O)CC1 [Compound 237, 5-((4-Fluoro-1-(methylsulfonyl)piperidin-4-yl)methoxy)-2-((5-fluoroisoindolin-2-yl)methyl)-4H-pyran-4-one] | 150 to 300 |
| O=c1cc(CN2Cc3ccccc3C2)occ1OCC1CCN(S(=O)(=O)CC(F)(F)F)CC1 [Compound 253] | 301 to 2000 |
| COC(=O)[C@H]1CC[C@H](COc2coc(CN3Cc4ccccc4C3)cc2=O)CC1 [Compound 178, Methyl (1r,4r)-4-(((6-(isoindolin-2-ylmethyl)-4-oxo-4H-pyran-3-yl)oxy)methyl)-cyclohexane-1-carboxylate] | 301 to 2000 |
| CC(C)(C)OC(=O)N1CCC[C@@H](COc2coc(CN3Cc4ccccc4C3)cc2=O)C1 [Compound 202, (R)-tert-Butyl 3-(((6-(isoindolin-2-ylmethyl)-4-oxo-4H-pyran-3-yl)oxy)methyl)-piperidine-1-carboxylate] | 301 to 2000 |
| O=C(COc1coc(CN2Cc3ccccc3C2)cc1=O)N1CCN(Cc2ccccc2)CC1 [Compound 153, 5-(2-(4-Benzylpiperazin-1-yl)-2-oxoethoxy)-2-(isoindolin-2-ylmethyl)-4H-pyran-4-one] | 301 to 2000 |
| Cc1ccc(S(=O)(=O)N=S(C)c2ccc(COc3coc(CN4Cc5ccccc5C4)cc3=O)cc2)cc1 (stereo not shown) [Compound 93, N-{[4-({[6-(1,3-dihydro-2H-isoindol-2-ylmethyl)-4-oxo-4H-pyran-3-yl]oxy}-methyl)phenyl](methyl)-λ^4-sulfanylidene}-4-methylbenzenesulfonamide] | < 150 |
| CS(=O)(=O)N1CCC(COc2coc(CN3Cc4ccc(Cl)cc4C3)cc2=O)CC1 [Compound 241, 2-((5-Chloroisoindolin-2-yl)methyl)-5-((1-(methylsulfonyl)piperidin-4-yl)-methoxy)-4H-pyran-4-one] | 150 to 300 |
| CC(=O)NC(C)(C)c1ccc(COc2coc(CN3Cc4ccccc4C3)cc2=O)cc1 [Compound 69, N-(2-(4-(((6-(Isoindolin-2-ylmethyl)-4-oxo-4H-pyran-3-yl)oxy)methyl)phenyl)-propan-2-yl)acetamide] | 150 to 300 |
| O=c1cc(CN2Cc3ccccc3C2)occ1OCc1ccc(C2(O)COC2)cc1 [Compound 114, 5-((4-(3-Hydroxyoxetan-3-yl)benzyl)oxy)-2-(isoindolin-2-ylmethyl)-4H-pyran-4-one] | < 150 |
| CC(C)NC(=O)N1CCC(COc2coc(CN3Cc4ccccc4C3)cc2=O)CC1 [Compound 229, 4-(((6-(Isoindolin-2-ylmethyl)-4-oxo-4H-pyran-3-yl)oxy)methyl)-N-isopropyl-piperidine-1-carboxamide] | < 150 |
| CS(=O)(=O)c1ccc(COc2coc(CN3Cc4ccc(OC(F)(F)F)cc4C3)cc2=O)cc1 [Compound 37, 5-((4-(Methylsulfonyl)benzyl)oxy)-2-((5-(trifluoromethoxy)isoindolin-2-yl)-methyl)-4H-pyran-4-one] | < 150 |
| Cc1ccc(COc2coc(CN3CCc4ccccc4C3)cc2=O)cc1 [Compound 42, 2-((3,4-Dihydroisoquinolin-2(1H)-yl)methyl)-5-((4-methylbenzyl)oxy)-4H-pyran-4-one] | 301 to 2000 |
| CS(=O)(=O)N1CCC(COc2coc(CN3Cc4ccc(F)c(F)c4C3)cc2=O)CC1 [Compound 245, 2-((4,5-Difluoroisoindolin-2-yl)methyl)-5-((1-(methylsulfonyl)piperidin-4-yl)methoxy)-4H-pyran-4-one] | 301 to 2000 |
| CC(C)(CO)CNC(=O)c1ccc(COc2coc(CN3Cc4ccccc4C3)cc2=O)cc1 [Compound 151, N-(3-Hydroxy-2,2-dimethylpropyl)-4-(((6-(isoindolin-2-ylmethyl)-4-oxo-4H-pyran-3-yl)oxy)methyl)benzamide] | 301 to 2000 |
| COc1ccc2c(c1)CCN(Cc1cc(=O)c(OCc3ccc(C#N)cc3)co1)C2 [Compound 53, 4-(((6-((6-Methoxy-3,4-dihydroisoquinolin-2(1H)-yl)methyl)-4-oxo-4H-pyran-3-yl)oxy)methyl)benzonitrile] | 150 to 300 |
| CN(CCC#N)S(=O)(=O)c1ccc(COc2coc(CN3Cc4ccccc4C3)cc2=O)cc1 [Compound 23, N-(2-Cyanoethyl)-4-(((6-(isoindolin-2-ylmethyl)-4-oxo-4H-pyran-3-yl)oxy)-methyl)-N-methylbenzenesulfonamide] | < 150 |
